This note sets out measurements from publication PMC7261837, “Circumdatin D Exerts Neuroprotective Effects by Attenuating LPS-Induced Pro-Inflammatory Responses and Downregulating Acetylcholinesterase Activity In Vitro and In Vivo” (Frontiers in Pharmacology, 2020).

The test system of series [1] is primary microglia cells. The series can be described thus: MTT assay in primary microglia. It is filed as cell-based, Sprague Dawley rats. To be noted: untreated and LPS-stimulated cells, 1–100 μM, 48 h. How it is done:
(§1) Primary microglia were prepared from the cortical tissue of neonatal (1–3 d) Sprague Dawley rats as [Ni and Aschner (2010)] described and primary cortical neurons were isolated from embryos of pregnant Sprague Dawley rats of E-18 ([Zeng et al., 2012]). All experimental manipulations with the animals was reviewed and approved by the animal experimental ethics committee of Peking University. The animals used in the work were performed in accordance with the Animal Care and Use Guidelines of Peking University.
In vitro cytotoxicity was detected using the MTT assay. Cells were treated with different concentrations of circumdatins in the presence or absence of LPS for 48 h. Then, MTT reagent was added to each well and the plates were further incubated at 37°C for 4 h. The absorbance was read at 570 nm using a microplate spectrophotometer (Thermo Scientifics, USA).
Cell surviability was detected using the MTT assay. Cells were seeded in 96-well plates and incubated overnight, following which the cells were treated with different concentrations of circumdatins with or without 1µg/mL of LPS for indicated time. Then, the cells were subsequently cultured with MTT and incubated for 4 hours at 37°C. Thereafter, the purple formazan dye was dissolved in DMSO and the absorbance was measured at 570 nm.
In general terms: Tetrazolium dyes change colour on reduction, which living cells bring about.

The subject of series [2] is primary microglia cells. The series is described as follows: NO, TNF-α and IL-1β production in LPS-induced primary microglia. To be noted: 1.0 μg/ml LPS, 10, 20, 50 μM. It is filed as cell-based, Sprague Dawley rats. How it is done:
as §1
The NO levels in culture media was determined using a Griess method. Cells were treated with different concentrations of circumdatins in the presence or absence of LPS for 24 h. After that, the supernatant fraction of the culture media was collected and mixed with the same volume of Griess reagent (1% sulfanilamide/0.1% naphthyl ethylene diamine dihydrochloride/2% H3PO4). Then, the absorbance was measured at 540 nm using a microplate spectrophotometer (Thermo Scientifics, USA). The concentration of nitrite was calculated from a calibration curve obtained from standards sodium nitrite solutions.
Cells were treated with different concentrations of circumdatin D in the presence or absence of LPS for indicated time. […] The levels of TNF-α and IL-β in the supernatants were determined by ELISA kits according to the manufacturer's instructions.

Series [3] addresses T1, AChE in primary cortical neurons (Rattus norvegicus, UniProt P37136).
T1 construct: primary cortical neurons were isolated from embryos of pregnant Sprague Dawley rats of E-18; endogenous in cells; host or cells: primary cortical neurons from E-18 Sprague Dawley rat embryos
The series can be described thus: AChE activity in LPS-treated primary neurons (modified Ellman). It counts as cell-based. To be noted: 1 μg/ml LPS, 1–100 μM, 48 h. How it is done: AChE activities in vitro and in vivo were assessed by a modified Ellman's spectrophotometric method ([Szwajgier, 2015]). Briefly, AChE (80 μl) in phosphate buffer (Na2HPO4/NaH2PO4, pH 8.0) and compound (20 μl) diluted in same phosphate buffer were added to 96 microplates as the reaction mixture. The mixture was incubated at 37°C for 30 min before addition of 10 μl 5,5′-dithiobis (2-nitrobenzoic acid) (DTNB) (3 mM) and 10 μl acetylthiocholine iodide (ATCI) (15 mM). After incubation for 20 min, the absorbance was detected at 412 nm using a microplate spectrophotometer (Thermo Scientifics, USA). […] The inhibitory rate of AChE was calculated, and the IC50 values were calculated by GraphPad Prism® 5.0 software (GraphPad Inc., San Diego, USA).

The subject of another series is C. elegans CL4176. The series can be described thus: Paralysis assay in transgenic C. elegans CL4176. It counts as in vivo, Caenorhabditis elegans. To be noted: 36 h after temperature upshift 16 to 25°C. How it is done: The in vivo effects of circumdatin D on pro-inflammatory response and AChE activity were evaluated using C. elegans as animal model. Transgenic C. elegans CL4176 and E. coli OP50 were bought from the Caenorhabditis Genetics Center (University of Minnesota, Minneapolis, MN, USA). CL4176 strain become paralysis after up-shifting temperature from 16 to 25°C due to expressing human β-amyloid peptide in muscle cells. The nematodes were cultivated on nematode growth medium (NGM) plates (1.7% Agar, 0.3% NaCl, 0.25% peptone, 1 mM CaCl2, 1 mM MgSO4, 5 mg/L cholesterol, and 2.5 mM K2HPO4) with E. coli OP50 at 16°C. In paralysis assay, egg-synchronized CL4176 nematodes were incubated on solid NGM plates with E. coli OP50 at 16°C. When the age of the worms grew to L4 stage, nematodes were divided into four groups and exposed to appropriate concentrations of circumdatin D or vehicle control (0.4% DMSO) at 16 °C for 36 h. The temperature was then raised from 16 to 25°C, the number of paralyzed worms was counted under the microscope. The paralyzed worms were recognized for those with no response or only moved head when gently touched with a platinum wire. Each independent assay included three NGM plates with 30 worms for each one. Likewise, the AChE activity and RT-PCR assay was employed using similar conditions.
In paralysis assay, CL4176 worms were egg-synchronized onto fresh NGM plates containing OP50 bacteria at 16℃. To induce the transgene expression, the temperature raised from 16 to 25℃ and lasted until the end of the paralysis assay. The recording was performed at two hours interval typically after 24h at 25 °C until the majority of worm became paralyzed. The worms were considered as paralyzed if there was no response or they only moved their head when gently touched with a platinum wire. Each independent assay included three NGM plates with twenty worms in each one.

The test system of another series is TLR4 and MyD88. The series is described as follows: Western blot of TLR4 and MyD88 in LPS-induced BV-2 cells. To be noted: 1 μg/ml LPS, 10, 20, 50 μM, 6 h. It is filed as cell-based, murine. As to the method: Total cell proteins were lysed using cell extraction buffer containing phenylmethylsulfonyl ﬂuoride and protease inhibitor cocktail. The cytosolic and nuclear extracts were collected using the Nuclear and Cytosolic extraction kit. The protein extracts were separated on SDS-PAGE and transferred to PVDF membranes (Millipore). The membrane was blocked with 5% nonfat milk for 1 h at room temperature, and incubated with indicated primary antibodies overnight at 4°C. After washing, the membrane was incubated with secondary antibodies conjugated to horseradish peroxidase (Proteintech, USA) at room temperature for 1 h. Then, the proteins of interest were visualized utilizing a chemiluminescence (ECL) detection system. The relative optical densities were analyzed using the Image Master™ 2D Elite software.
On the technique in general: In western blotting, separated proteins are transferred to a membrane and probed.

T1 sequence (P37136 32-614): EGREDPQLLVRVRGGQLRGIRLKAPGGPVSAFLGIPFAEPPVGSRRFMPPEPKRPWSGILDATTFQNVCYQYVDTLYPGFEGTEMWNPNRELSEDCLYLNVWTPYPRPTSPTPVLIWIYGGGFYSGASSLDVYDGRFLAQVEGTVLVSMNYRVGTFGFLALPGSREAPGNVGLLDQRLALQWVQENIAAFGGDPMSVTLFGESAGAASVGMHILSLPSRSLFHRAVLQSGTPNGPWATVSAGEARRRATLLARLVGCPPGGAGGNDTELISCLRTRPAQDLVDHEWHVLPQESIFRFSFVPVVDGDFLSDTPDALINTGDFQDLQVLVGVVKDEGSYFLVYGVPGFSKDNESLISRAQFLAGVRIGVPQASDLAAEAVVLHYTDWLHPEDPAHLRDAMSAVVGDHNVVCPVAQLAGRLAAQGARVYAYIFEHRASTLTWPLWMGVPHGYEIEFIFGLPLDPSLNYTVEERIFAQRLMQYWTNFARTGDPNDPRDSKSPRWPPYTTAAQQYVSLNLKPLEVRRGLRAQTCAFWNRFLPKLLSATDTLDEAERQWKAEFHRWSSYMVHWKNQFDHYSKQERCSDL

For `COc1ccc2c(c1)C(=O)N1CCC[C@H]1c1nc3ccc(OC)cc3c(=O)n1-2` [circumdatin D], the “toxicity in primary microglial cultures (MTT)” value in the series on primary microglia cells [1] is “low toxicity”. In addition, in the series on primary microglia cells [2], the “LPS-stimulated production of NO, TNF-α and IL-1β” value was “significantly decreased the production of NO, TNF-α and IL-1β”. Further, the “LPS-induced AChE activity in primary neuronal cells” value in series [3] is reported as “markedly reduced the LPS-induced AChE activities”. Further, the reduction of paralysis entry is “about 24.9%” in the series with C. elegans CL4176 (CL4176, 50 μM); approximately 42.8% in the series with C. elegans CL4176 (CL4176, 100 μM); approximately 74.8% in the series with C. elegans CL4176 (CL4176, 200 μM). In addition, in the series with TLR4 and MyD88, the “LPS-induced TLR4 expression” value is given as “dramatically reversed the LPS-induced TLR4 expression”. Moreover, in the series with TLR4 and MyD88, the MyD88 expression entry is recorded as “suppressed the MyD88 expression”.
